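Interpolation was linear, between the two tested concentrations surrounding the appropriate level; five concentrations were tested over 48 hours in 96-well plates. TGI is the concentration that stops growth completely.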 Bounds are passed on as bounds.

Test systems include SN12K1 renal; HOP-18 NSCLC; P388/ADR leukemia; KM20L2 colon; SNB-78 CNS; DMS 114 small cell lung; P388 leukemia; XF 498 CNS; DLD-1 colon; LXFL 529 NSCLC; M19-MEL melanoma; RXF-631 renal.
Holding throughout (experiment): NCI tumour cell line growth inhibition, 48 h

`CC(C)(C)c1ccc2c(c1)OP1(Oc3c(Cl)cc(Cl)c4cccnc34)(O2)Oc2ccc(C(C)(C)C)cc2O1`: the TGI in the test with SN12K1 renal was 19.6 µM; in the test with HOP-18 NSCLC, 32.4 µM; with P388/ADR leukemia, 9.93 µM; in the test on KM20L2 colon it was 14.6 µM; in the test with SNB-78 CNS, > 86.8 µM; with DMS 114 small cell lung it was 9.57 µM. Moreover, the TGI came out at 2.61 µM in the test on P388 leukemia, 26.7 µM in the test on XF 498 CNS and 18.1 µM in the test with DLD-1 colon.

`COc1ccc(N2C(=O)C3CC(c4ccc(Br)cc4)c4c([nH]c5ccccc45)C3C2=O)cc1` (configuration not stated): the TGI is 24.8 µM in the test on HOP-18 NSCLC; 27.3 µM in the test on KM20L2 colon; 36.3 µM in the test with SNB-78 CNS; 20.8 µM in the test on DMS 114 small cell lung; 32 µM in the test on XF 498 CNS; 14.2 µM in the test with LXFL 529 NSCLC. For the same molecule, the TGI in the test on M19-MEL melanoma turned out to be 25.6 µM; with DLD-1 colon it was 23.4 µM.

Regarding `O=S1(=O)c2ccccc2N(O)C2=NCCN21`, the TGI with KM20L2 colon, in the test on SNB-78 CNS, in the test with DMS 114 small cell lung, with LXFL 529 NSCLC, with M19-MEL melanoma and with DLD-1 colon was > 100 µM in each case.

With `C=C(/C=C/C=C(\C)CCC=C(C)C)[C@@H]1CC[C@]2([C@H](CCCO)/C(=C(/C)C=O)CC[C@]2(C)O)[C@@H]1O`, the TGI in the test on HOP-18 NSCLC is 60.4 µM; with KM20L2 colon it was > 100 µM; in the test with SNB-78 CNS, 33.5 µM; with XF 498 CNS it was 32.8 µM; in the test on LXFL 529 NSCLC, 33.7 µM; in the test with DLD-1 colon it was 38.7 µM.

For the molecule `S=P1(Sc2ccccc2)Oc2ccc3ccccc3c2-c2c(ccc3ccccc23)O1`, the TGI in the test with SN12K1 renal, in the test with HOP-18 NSCLC, with P388/ADR leukemia, with KM20L2 colon, in the test on SNB-78 CNS and in the test with DMS 114 small cell lung was > 100 µM in each case. Also, the TGI in the test on P388 leukemia, with XF 498 CNS, in the test on M19-MEL melanoma and with DLD-1 colon was > 100 µM in each case.

In the case of `COC(=O)C1=CO[C@@H](C)[C@@H]2Cn3ccc4c5ccccc5nc-4c3C[C@H]12`, the TGI with RXF-631 renal, with HOP-18 NSCLC, with KM20L2 colon, in the test on SNB-78 CNS, with DMS 114 small cell lung and in the test with XF 498 CNS was > 100 µM throughout. The TGI in the test on LXFL 529 NSCLC, in the test with M19-MEL melanoma and with DLD-1 colon was > 100 µM throughout.

As for `O=C1CCCCCCC2=C1C(Sc1ccccc1)CC2` (configuration not stated), the TGI is > 100 µM in the test on HOP-18 NSCLC; > 100 µM with KM20L2 colon; > 100 µM in the test with SNB-78 CNS; 76.4 µM in the test on DMS 114 small cell lung; > 100 µM with LXFL 529 NSCLC; > 100 µM with M19-MEL melanoma.

Take `c1ccc2c3c(ccc2c1)-c1[nH]ncc1CCO3`: the TGI is > 79.8 µM in the test on SN12K1 renal; > 100 µM in the test on HOP-18 NSCLC; > 100 µM in the test with P388/ADR leukemia; > 95.1 µM in the test on KM20L2 colon; > 100 µM in the test on SNB-78 CNS; > 82.4 µM in the test on DMS 114 small cell lung. Also, the TGI in the test on P388 leukemia was > 100 µM; with XF 498 CNS, 79.8 µM; in the test on M19-MEL melanoma, > 100 µM; in the test with DLD-1 colon, > 100 µM.

Consider `CC(=O)OCc1c(O)c2c([nH]c1=O)CCc1ccccc1-2`, for which the TGI in the test with RXF-631 renal was 149 µM; with HOP-18 NSCLC, 295 µM; in the test with KM20L2 colon it was 263 µM; in the test with DMS 114 small cell lung, 155 µM; with XF 498 CNS it was 104 µM; in the test on LXFL 529 NSCLC, 111 µM. The TGI in the test with M19-MEL melanoma amounted to 108 µM; with DLD-1 colon it was 162 µM.

With `CC(C)(C)C1=CC(=N/N=c2\scc(-c3ccccc3)n2-c2ccccc2)C=C(C(C)(C)C)C1=O`, the TGI in the test with HOP-18 NSCLC, in the test with KM20L2 colon, in the test with SNB-78 CNS, in the test on DMS 114 small cell lung, with XF 498 CNS and in the test on LXFL 529 NSCLC was > 100 µM each time. In addition, the TGI in the test on M19-MEL melanoma and in the test with DLD-1 colon was > 100 µM throughout.

In the case of `CCCCN(CC)C(=O)C(=O)Cc1nc2ccc(C(=O)c3ccccc3)cc2[nH]c1=O`, the TGI in the test on KM20L2 colon, in the test on SNB-78 CNS, in the test with DMS 114 small cell lung, in the test on LXFL 529 NSCLC, with M19-MEL melanoma and in the test on DLD-1 colon was > 100 µM throughout.

Take `CCCn1cc2c(=O)[nH]c(SC)nc2n1`: the TGI in the test with HOP-18 NSCLC was > 100 µM; in the test on SNB-78 CNS it was > 100 µM; in the test on DMS 114 small cell lung it was > 100 µM; in the test on XF 498 CNS, 98.1 µM; with LXFL 529 NSCLC it was > 100 µM; in the test on DLD-1 colon, > 100 µM.

The values above are taken from PubChem BioAssay (NCI).
